Experimental data reported in PMC8063026 (Frontiers in Pharmacology, 2021).
Like-named read-outs stand apart in the source and are kept apart here.

How the values were obtained:
[1] = target: T1, DAT (Homo sapiens, UniProt Q01959); assay: cell-based
T1 construct: expressed in transfected cells

[2] = target: T2, human NET (Homo sapiens, UniProt P23975); assay: cell-based; conditions: for pIC50 NET: QSAR data matrix, from IC50 NET
T2 construct: expressed in transfected cells

[3] = target: T3, SERT (Homo sapiens, UniProt P31645); assay: Uptake-inhibition of [3H]5-HT in HEK293 cells stably expressing human SERT; assay type: cell-based
T3 construct: expressed in transfected cells
T3 sequence (P31645 whole entry): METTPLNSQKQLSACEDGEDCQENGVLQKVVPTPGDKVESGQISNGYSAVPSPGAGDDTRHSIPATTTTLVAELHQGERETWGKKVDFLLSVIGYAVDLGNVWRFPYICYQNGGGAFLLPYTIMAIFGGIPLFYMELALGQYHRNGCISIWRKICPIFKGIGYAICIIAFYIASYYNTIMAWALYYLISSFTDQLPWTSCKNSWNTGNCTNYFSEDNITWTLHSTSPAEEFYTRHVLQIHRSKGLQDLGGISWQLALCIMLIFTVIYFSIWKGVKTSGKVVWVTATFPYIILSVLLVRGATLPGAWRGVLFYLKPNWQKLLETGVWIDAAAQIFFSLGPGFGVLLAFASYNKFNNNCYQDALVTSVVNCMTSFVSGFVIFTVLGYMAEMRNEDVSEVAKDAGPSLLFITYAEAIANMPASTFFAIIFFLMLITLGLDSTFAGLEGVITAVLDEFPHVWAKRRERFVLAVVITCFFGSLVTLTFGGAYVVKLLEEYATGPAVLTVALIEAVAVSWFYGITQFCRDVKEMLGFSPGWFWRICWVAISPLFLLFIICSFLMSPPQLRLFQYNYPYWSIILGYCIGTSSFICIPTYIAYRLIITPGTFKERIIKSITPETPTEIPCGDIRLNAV

[4] = target: T1, DAT; conditions: cited from earlier work
[5] = target: T2, human NET; conditions: QSAR data matrix; unit inferred; compounds not tested in this paper, source not given, presumably ref Mayer et al., 2019; cited from earlier work
[6] = target: T3, SERT; conditions: cited from earlier work
[7] = LC-MS/MS detection of mephedrone metabolites in a human urine sample; assay type: in vivo; set-up: key to Detected in urine samples: detected (+); not detected (−); conditions: for detection in human urine sample: achiral LC-MS/MS, after enzymatic workup; for Detected in urine samples: human urine, mephedrone user, only syn- and anti-configurations could be separated
Description: The biological specimen, human urine, was provided by the Department of Chemical Analytics, Seibersdorf Laboratories GmbH. The sample was taken from a subject postmortem in a fatal case of drug overdose. […] Given this fact, we assumed that also the metabolites would be detectable in sufficient quantity. To evaluate the presence of any metabolites whatsoever in the urine sample we designed an achiral separation protocol for liquid chromatography and we coupled it with triple quadrupole mass spectrometer. The advantage of LC-MS/MS system is that even if two substances have the same retention time, they can still be differentiated by their fragmentation pattern. More in details, the samples for urine analysis were analyzed using a CTC HTS PAL autosampler (CTC Analytics) and a Thermo Surveyor LC system (Thermo) interfaced to a TSQ Quantum Discovery Max triple quadrupole mass spectrometer (Thermo). A C18 security guard cartridge (4 × 2 mm) (Phenomenex) was used for sample clean-up and the analytical HPLC column was a Kinetex 1.7 μm C18 100Å 150 × 2.1 mm (Phenomenex) and Cortecs T3, 2.7 μm C18 120Å 100 × 2.1 mm (Waters). Column selection was performed by a Maylab Mistraswitch column selector (Maylab Analytical Instruments). The solvents were 0.2% formic acid in water (A) and acetonitrile (B). The temperature of the analytical column was maintained at 40°C. The mass spectrometer was equipped with heated electrospray ionization (ESI) source and was operated in positive ionization mode with a spray voltage set at 4500V. The capillary temperature was adjusted to 320°C. The sheath and auxiliary gas (nitrogen) flow rate was 25 and 10 arbitrary units, respectively. The system was operated in selected […] (srm) mode with argon as the collision gas at a pressure of 1.5 mTorr. For the achiral separation, stem solutions were prepared by weighing the reference substances in volumetric flasks and filling them up with MeOH (99.9%; HPLC grade), creating average concentration of 1 mg/ml. Then dilution solutions were prepared as follows: 10 μL of stem solution was filled up to 5 ml MeOH, creating dilution […]. Samples were prepared from dilution solutions by taking out 25 μL and mixing it together with 25 μL of ISP, 50 μL ISS and filled up to 1 ml with Milli-Q water. The final sample solvent was water/MeOH 9/1. For the enzymatic workup, phosphate buffer (1 ml, 0.8M, pH = 7), β-glucuronidase/arylsulfatase (25 μL) and β-glucuronidase (25 μL) were added to the solutions. The solutions were heated at 50°C during 1 h upon which EtOAc (7 ml) was added. The solution was put into shaker for 10min, following centrifugation for 5 min. The organic phase was separated and evaporated into dryness in stream of pressurized nitrogen. The residue was taken up in 150 μL MQ-water/MeOH 9/1 + 0.4% formic acid, heated at 50°C for 5 min and subjected to LC-MS analysis.
If on one hand the synthesis of putative metabolites allows the establishment of structure activity relationships, on the other hand, it provides pure material to evaluate their presence in human urine samples and determine their pharmacological relevance. To determine the presence of any metabolites in the urine sample, we have designed an achiral separation protocol and coupled the liquid chromatography with triple quadrupole mass spectrometer (LCMS/MS). With the LCMS/MS system two substances with the same retention time, can still be differentiated by their fragmentation pattern. Since metabolites carrying a primary alcohol functionality can form glucuronide and sulfate conjugates, we performed an enzymatic workup of the urine sample in order to cleave them. Apart from the parental drug, we detected 4-OH-MMC and 4-MC (nor-meph) which we have both already identified in our previous publication ([Mayer et al., 2019]), and the two previously uncharacterized metabolites 4-COOH-MC and dihydro-4-MC (Figure 6). […]

[8] = ref Olesti et al., 2019, cited from earlier work
[9] = cited from earlier work; for relative abundance: minor metabolites in rats, ref Linhart et al., 2016
[10] = ref Meyer et al., 2010; cited from earlier work
[11] = target: T1, DAT; assay: Transporter electrophysiology (whole cell patch clamp), HEK293 cells stably expressing DAT; assay type: cell-based; conditions: compound applied at 30 µM, -60 mV
Experimental: (§1) Human embryonic kidney 293 cells (HEK293 cells) were cultivated in Dulbecco’s Modified Eagle Medium (DMEM), containing 10% heat-in- activated fetal calf serum (FCS), streptomycin (100 μg x 100 ml−1) and penicillin (100 U × 100 ml−1). Geneticin (50 μg x mL−1) was added to select HEK293 cells stably expressing the human isoforms of DAT, NET and SERT as described earlier ([Mayer et al., 2016a]). Cell lines were maintained in a sub-confluent state in humidified atmosphere (37°C, 5% CO2). For uptake inhibition experiments cells expressing the desired transporter were seeded the days before the experiment (40,000 cells per well) or two days before the experiments (20,000 cells per well) onto poly-D-lysine (PDL) coated 96-well plates 24 h prior to the experiment. In the case of transporter-electrophysiology cells were cultivated in 10 cm dishes and 24 h before the experiments they were detached, and seeded at low density onto PDL-coated 3 cm dishes.
(§2) Transporter electrophysiology was conducted by the means of whole cell patch clamp in HEK293 cells stably expressing DAT or SERT. Substrate-induced currents were recorded under voltage clamp (−60 mV). Cells were continuously superfused with a physiological external solution that contains 140 mM NaCl, 2.5 mM CaCl2, 2 mM MgCl2, 20 mM glucose and 10 mM HEPES, pH = 7.4. The pipette solution contained 133 mM potassium gluconate, 6 mM NaCl, 1 mM CaCl2, 0.7 mM MgCl2, 10 mM HEPES, 10 mM EGTA, pH = 7.2. Currents elicited by mephedrone 30 μM, were measured at room temperature (20–24°C) using an […] amplifier and pClamp 11.2 software (MDS Analytical Technologies). All the solutions perfused onto the cell were applied using a DAD-12 superfusion system and a 8-tube perfusion manifold (ALA Scientific Instruments), which allowed for rapid solution exchange. Current traces were filtered at 1 kHz and digitized at 10 kHz using a Digidata 1,550 (MDS Analytical Technologies). […] For the analysis, passive holding currents were subtracted, and the traces were filtered using a 100-Hz digital Gaussian low-pass filter.

[12] = target: T3, SERT; assay: Transporter electrophysiology (whole cell patch clamp), HEK293 cells stably expressing SERT; assay type: cell-based; conditions: compound applied at 30 µM, -60 mV
Experimental: as §1, §2

[13] = test system: SERT; set-up: method as in Gregg et al., 2015; Mayer et al., 2016b; Mayer et al., 2019; conditions: ref Gregg et al., 2015, Mayer et al., 2016b, 2019; cited from earlier work
[14] = QSAR data matrix, from IC50 DAT
[15] = QSAR data matrix, from IC50 SERT
[16] = QSAR data matrix, unit inferred, compounds not tested in this paper, source not given, presumably ref Mayer et al., 2019, read-out: IC50 DAT
[17] = QSAR data matrix, unit inferred, compounds not tested in this paper, source not given, presumably ref Mayer et al., 2019, read-out: IC50 SERT

T2 sequence (P23975 whole entry): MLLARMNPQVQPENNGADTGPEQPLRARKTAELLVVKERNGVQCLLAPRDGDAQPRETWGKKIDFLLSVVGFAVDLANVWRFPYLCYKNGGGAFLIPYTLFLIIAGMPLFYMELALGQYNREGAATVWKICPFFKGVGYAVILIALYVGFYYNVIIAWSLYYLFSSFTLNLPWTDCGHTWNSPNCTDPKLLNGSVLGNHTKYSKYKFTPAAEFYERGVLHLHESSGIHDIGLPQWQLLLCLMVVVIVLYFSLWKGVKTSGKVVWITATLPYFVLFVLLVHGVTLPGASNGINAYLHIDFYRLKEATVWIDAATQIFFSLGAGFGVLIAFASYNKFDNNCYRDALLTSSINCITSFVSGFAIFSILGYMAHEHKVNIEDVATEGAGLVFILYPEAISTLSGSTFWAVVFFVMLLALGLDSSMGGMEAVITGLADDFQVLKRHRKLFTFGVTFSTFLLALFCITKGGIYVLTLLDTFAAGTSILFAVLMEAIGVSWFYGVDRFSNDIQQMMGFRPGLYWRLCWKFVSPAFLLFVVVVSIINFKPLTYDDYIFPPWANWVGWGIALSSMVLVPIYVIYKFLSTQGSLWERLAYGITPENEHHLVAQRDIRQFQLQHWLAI
T1 sequence (Q01959 whole entry): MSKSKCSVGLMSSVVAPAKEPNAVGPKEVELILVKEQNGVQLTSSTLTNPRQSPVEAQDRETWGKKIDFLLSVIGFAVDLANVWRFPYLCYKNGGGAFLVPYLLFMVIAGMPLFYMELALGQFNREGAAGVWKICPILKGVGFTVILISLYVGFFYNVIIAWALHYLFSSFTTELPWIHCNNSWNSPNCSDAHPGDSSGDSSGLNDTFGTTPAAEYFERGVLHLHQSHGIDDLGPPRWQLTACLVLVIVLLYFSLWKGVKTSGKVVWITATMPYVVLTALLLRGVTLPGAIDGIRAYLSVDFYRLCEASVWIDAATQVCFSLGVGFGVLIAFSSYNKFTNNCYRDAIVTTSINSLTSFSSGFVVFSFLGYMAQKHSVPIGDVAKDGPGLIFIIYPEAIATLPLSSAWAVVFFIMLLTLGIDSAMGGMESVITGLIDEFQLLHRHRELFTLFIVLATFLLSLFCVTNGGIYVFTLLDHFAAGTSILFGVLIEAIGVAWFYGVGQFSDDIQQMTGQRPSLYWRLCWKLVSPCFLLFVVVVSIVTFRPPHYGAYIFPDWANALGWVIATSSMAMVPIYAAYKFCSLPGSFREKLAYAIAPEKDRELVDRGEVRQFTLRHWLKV

Row | Structure (SMILES) | pIC50 DAT [1, 14] | pIC50 NET [2] | pIC50 SERT [3, 15] | IC50 [4, 16] | IC50 [5] | IC50 [6, 17] | detection in human urine sample [7] | other results
1 | CN[C@H](C)[C@H](O)c1ccc(C)cc1 [1R2R-MMC, reference compound] | 4.85 | 4.41 | 3.52 | 14.1 µM | 39.1 µM | 302 µM |  | 
2 | CN[C@@H](C)[C@H](O)c1ccc(C)cc1 [1R2S-MMC, reference compound] | 4.68 | 4.41 | 4.49 | 21.1 µM | 39 µM | 32.2 µM |  | 
3 | CN[C@H](C)[C@@H](O)c1ccc(C)cc1 [1S2R-MMC, reference compound] | 4.90 | 4.64 | 4.18 | 12.7 µM | 22.7 µM | 65.6 µM |  | 
4 | CN[C@@H](C)[C@@H](O)c1ccc(C)cc1 [1S2S-MMC, reference compound] | 4.89 | 4.33 | 3.61 | 12.9 µM | 47.1 µM | 248 µM |  | 
5 | Cc1ccc(C(=O)[C@@H](C)N)cc1 [2R-MC, reference compound] | 5.03 | 5.34 | 3.70 | 9.44 µM | 4.54 µM | 200 µM |  | 
6 | Cc1ccc(C(=O)[C@H](C)N)cc1 [2S-MC, reference compound] | 5.06 | 5.42 | 4.96 | 8.72 µM | 3.84 µM | 10.9 µM |  | 
7 | Cc1ccc(C(=O)C(C)N)cc1 (stereo not shown) [4-MC, nor-mephedrone, reference compound] |  |  |  |  |  |  | detected | plasma level as % of the plasma mephedrone [8]: 25%
8 | CC(N)C(=O)c1ccc(CO)cc1 (stereo not shown) [4-OH-MC] |  |  |  |  |  |  | not found | relative abundance [9]: 0.1–0.2%; detection in rat urine ([9]; ref Meyer et al., 2010): could be detected in rat urine; detection in human urine [10]: not in human urine
9 | CNC(C)C(=O)c1ccc(C)cc1 (stereo not shown) [Mephedrone, reference compound] |  |  |  |  |  |  |  | Selectivity ratio DAT/SERT [1]: 2.90; Selectivity ratio NET/DAT [2]: 1.09; DAT-mediated current [11]: elicited both DAT- and SERT mediated currents; SERT-mediated current [12]: elicited both DAT- and SERT mediated currents; Detected in urine samples [7]: +; IC50 ([4]; read-out: IC50 (µM) DAT, mean (95% confidence interval), ref Niello et al. (2019)): 3.01 µM; IC50 ([6]; read-out: IC50 (µM) SERT, mean (95% confidence interval), ref Niello et al. (2019)): 8.74 µM; plasma concentrations ([8]; conversion of ng h/ml range): 0.090 to 1.25 µM·h
10 | C[C@H](N)C(=O)c1ccc(CO)cc1 [S-4-OH-MC] |  |  |  |  |  |  |  | Selectivity ratio DAT/SERT [1]: 2.08; IC50 ([1]; mean (95% confidence interval), non-linear regression, read-out: IC50 (µM) DAT): 19.2 µM; Selectivity ratio NET/DAT [2]: 3.22; IC50 ([2]; mean (95% confidence interval), non-linear regression, read-out: IC50 (µM) NET): 5.97 µM; IC50 ([3]; mean (95% confidence interval), non-linear regression, read-out: IC50 (µM) SERT): 40 µM; DAT-mediated current [11]: elicited both DAT- and SERT mediated currents; SERT-mediated current [12]: elicited both DAT- and SERT mediated currents; Detected in urine samples [7]: −
11 | CN[C@@H](C)C(=O)c1ccc(C)cc1 [S-mephedrone, reference compound] |  |  |  |  |  |  |  | IC50 ([1]; QSAR data matrix, from IC50 DAT, read-out: pIC50 DAT (converted)): 0.776 µM; IC50 [2]: 2.75 µM; IC50 ([3]; pIC50 SERT, QSAR data matrix, from IC50 SERT): 10.7 µM; IC50 ([6]; read-out: IC50 SERT, QSAR data matrix, unit inferred, compounds not tested in this paper, source not given, presumably ref Mayer et al., 2019): 10.7 µM; potency as releaser of SERT, times higher than R-mephedrone [13]: 40 times
12 | CNC(C)C(O)c1ccc(C)cc1 (stereo not shown) [dihydro-4-MMC, dihydro-mephedrone, reference compound] |  |  |  |  |  |  | did not find | plasma level as % of the plasma mephedrone [8]: 10%
13 | CC(N)C(O)c1ccc(CO)cc1 (stereo not shown) [dihydro-4-OH-MC] |  |  |  |  |  |  | not found | relative abundance [9]: 0.1–0.2%
